Experimental findings from PMC7619385 (ACS infectious diseases, 2025) are described below.

Where a name gives a salt, the structure may show the parent alone. Read-outs that look alike come from different tables or passages of the source.

This experiment has as its target T1, LmxCLK1 (Leishmania mexicana, UniProt E9AMP2).
T1 sequence (E9AMP2 1-422): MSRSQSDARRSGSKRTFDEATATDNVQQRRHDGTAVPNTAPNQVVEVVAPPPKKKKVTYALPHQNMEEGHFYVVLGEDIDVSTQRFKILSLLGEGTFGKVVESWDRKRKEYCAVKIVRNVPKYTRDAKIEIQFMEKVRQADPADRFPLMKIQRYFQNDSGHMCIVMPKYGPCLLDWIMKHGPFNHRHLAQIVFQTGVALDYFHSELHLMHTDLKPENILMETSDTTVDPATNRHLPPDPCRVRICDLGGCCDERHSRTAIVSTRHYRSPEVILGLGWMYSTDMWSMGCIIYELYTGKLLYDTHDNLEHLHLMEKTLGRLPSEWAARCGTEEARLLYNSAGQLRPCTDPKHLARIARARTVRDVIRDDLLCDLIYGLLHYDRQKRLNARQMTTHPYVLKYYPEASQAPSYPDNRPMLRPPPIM
The experiment in a line: biochemical. The experiment is classed as binding.

Where [1] appears, read: DSF, 10 µM compound, 2 µM LmxCLK1, Run 1.
The mark [2] stands for this setting: DSF, 10 µM compound, 2 µM LmxCLK1, Run 2.
[3] abbreviates: DSF, 10 µM compound, 2 µM LmxCLK1, mean of two runs.
[4] abbreviates: DSF, 10 µM compound, 2 µM LmxCLK1, Run 1, read-out: ΔTm Run 1.
Setting [5] is: DSF, 10 µM compound, 2 µM LmxCLK1, Run 2, read-out: ΔTm Run 2.
[6] abbreviates: DSF, 10 µM compound, 2 µM LmxCLK1, mean of two runs, read-out: ΔTm Average.

With `Cc1cn(-c2cc(NC(=O)c3ccc(C)c(Nc4nccc(-c5cccnc5)n4)c3)cc(C(F)(F)F)c2)cn1` [Nilotinib (AMN-107)], under setting [1], the “ΔTm Run 1” value is 0.0 °C. For the same compound, the “ΔTm Run 2” value under setting [2] was 0.0 °C. Moreover, the “ΔTm Average” value under setting [3] came to 0.0 °C.

On to `C[C@]1(O)C[C@@H](c2nc(-c3ccc4ccc(-c5ccccc5)nc4c3)c3c(N)nccn32)C1` [OSI-906 (Linsitinib)], for which the “ΔTm Run 1” value under setting [1] is 0.0 °C. Besides, the “ΔTm Run 2” value under setting [2] is -0.3 °C. The “ΔTm Average” value under setting [3] was -0.2 °C.

Turning to `NCC(=O)Nc1ccc(-n2nc(C(F)(F)F)cc2-c2ccc3c(ccc4ccccc43)c2)cc1` [OSU-03012 (AR-12)], the “ΔTm Run 1” value under setting [1] was -0.1 °C. Besides, the “ΔTm Run 2” value under setting [2] came to 0.2 °C. Also, the “ΔTm Average” value under setting [3] turned out to be 0.0 °C.

Regarding `CN1CCC(c2c(O)cc(O)c3c(=O)cc(-c4ccccc4Cl)oc23)C1CO` (stereo not drawn) [P276-00], the ΔTm Average is 0.3 °C, the ΔTm Run 1 was determined as 0.4 °C and the ΔTm Run 2 was 0.3 °C.

In the case of `C=CC(=O)Nc1ccc2ncnc(Nc3cccc(Br)c3)c2c1` [PD168393], the “ΔTm Run 1” value under setting [1] is 0.3 °C. Further, the “ΔTm Run 2” value under setting [2] was -0.7 °C. Also, the “ΔTm Average” value under setting [3] is -0.2 °C.

As for `CCN(CC)CCCCNc1ncc2cc(-c3cc(OC)cc(OC)c3)c(NC(=O)NC(C)(C)C)nc2n1` [PD173074], the ΔTm (usually the change in melting temperature against a reference sample) at 10 µM was 0.1 °C under setting [4], -0.1 °C under setting [5] and 0 °C under setting [6].

On to `CSc1cccc(Nc2ncc3cc(-c4c(Cl)cccc4Cl)c(=O)n(C)c3n2)c1` [PD173955], for which, under setting [1], the “ΔTm Run 1” value was determined as 0.0 °C. Further, the “ΔTm Run 2” value under setting [2] is -0.3 °C. Under setting [3], the “ΔTm Average” value was -0.1 °C.

With `O=C(NOCC(O)CO)c1cc(Br)c(F)c(F)c1Nc1ccc(I)cc1F` (stereo not drawn) [PD318088], under setting [1], the “ΔTm Run 1” value worked out at 0.4 °C. The “ΔTm Run 2” value under setting [2] was found to be 0.1 °C. Moreover, the “ΔTm Average” value under setting [3] was determined as 0.2 °C.

Consider `Cn1cc(-c2[nH]c3cc(NC(=O)[C@H](N)C4CCCCC4)cc4c3c2C=NNC4=O)cn1` [PF-477736], for which the shift in melting temperature (ΔTm) at 10 µM is, setting by setting: under setting [4], 1.3 °C; under setting [5], 1.2 °C; under setting [6], 1.2 °C.

Regarding `CN(c1ncccc1CNc1nc(Nc2ccc3c(c2)CC(=O)N3)ncc1C(F)(F)F)S(C)(=O)=O` [PF-00562271], the “ΔTm Average” value is listed as -0.1, the ΔTm Run 1 worked out at 0 °C and the “ΔTm Run 2” value is reported as -0.3.

`CN(c1ncccc1CNc1nc(Nc2ccc3c(c2)CC(=O)N3)ncc1C(F)(F)F)S(C)(=O)=O` [PF-562271]: the “ΔTm Run 1” value under setting [1] was 0.3 °C. For the same compound, the “ΔTm Run 2” value under setting [2] is -0.1 °C. Further, under setting [3], the “ΔTm Average” value worked out at 0.1 °C.

In the case of `CS(=O)(=O)c1cccc(CNc2nc(Nc3ccc4c(c3)CCC(=O)N4)ncc2C(F)(F)F)c1` [PF-573228], the “ΔTm Run 1” value under setting [1] worked out at 0.1 °C. Also, under setting [2], the “ΔTm Run 2” value was -0.3 °C. The “ΔTm Average” value under setting [3] is -0.1 °C.

As for `Cc1nc(Nc2[nH]nc3c2CN(C(=O)N[C@H](CN(C)C)c2ccccc2)C3(C)C)c2sccc2n1` [PF-3758309], the shift in melting temperature (ΔTm) at 10 µM runs as follows: under setting [4], 0.7 °C; under setting [5], 0.5 °C; under setting [6], 0.6 °C.

`OCCn1cc(-c2cnc3nnn(Cc4ccc5ncccc5c4)c3n2)cn1` [PF-04217903]: the ΔTm Average stood at 0.2 °C, the ΔTm Run 1 was 0.1 °C and the ΔTm Run 2 came to 0.3 °C.

On to `CCc1cncnc1N1CCN(Cc2nc3ccc(C(F)(F)F)cc3[nH]2)CC1` [PF-4708671], for which the “ΔTm Average” value is -0.1, the ΔTm Run 1 was determined as 0.1 °C and the “ΔTm Run 2” value is -0.2.

With `CNC(=O)c1ccc(C)c(-n2c(C)cc(OCc3ccc(F)cc3F)c(Br)c2=O)c1` [PH-797804], the ΔTm at 10 µM under setting [4] was -0.1 °C, the ΔTm at 10 µM under setting [5] is -0.3 °C and the thermal shift (ΔTm) at 10 µM under setting [6] is -0.2 °C.

Regarding `Cc1[nH]c(/C=C2\C(=O)Nc3ccc(S(=O)(=O)Cc4c(Cl)cccc4Cl)cc32)c(C)c1C(=O)N1CCC[C@@H]1CN1CCCC1` [PHA-665752], the ΔTm at 10 µM is, setting by setting: under setting [4], 0.1 °C; under setting [5], 0.1 °C; under setting [6], 0.1 °C.

As to `CCc1cccc(CC)c1NC(=O)N1Cc2n[nH]c(NC(=O)c3ccc(N4CCN(C)CC4)cc3)c2C1` [PHA-680632], the ΔTm at 10 µM by setting is: under setting [4], 0.7 °C; under setting [5], 0.6 °C; under setting [6], 0.6 °C.

On to `O=C1NCCc2[nH]c(-c3ccncc3)cc21` [PHA-767491], for which the “ΔTm Run 1” value under setting [1] is 0.7 °C. For the same compound, under setting [2], the “ΔTm Run 2” value was 1.3 °C. Moreover, the “ΔTm Average” value under setting [3] was determined as 1.0 °C.

Turning to `CC(C)CC(=O)Nc1[nH]nc2c1CN(C(=O)C1CCN(C)CC1)C2(C)C` [PHA-793887], the ΔTm at 10 µM came out at 0.1 °C under setting [4], 0 °C under setting [5] and 0.1 °C under setting [6].

As for `Oc1cccc(-c2nc(N3CCOCC3)c3oc4ncccc4c3n2)c1` [PI-103], the ΔTm at 10 µM by setting is: under setting [4], 0 °C; under setting [5], 0 °C; under setting [6], 0 °C.

Consider `Cc1ccc([N+](=O)[O-])cc1S(=O)(=O)N(C)/N=C/c1cnc2ccc(Br)cn12` [PIK-75], for which the ΔTm Average was determined as 0.3 °C, the ΔTm Run 1 is 0.5 °C and the ΔTm Run 2 was 0.1 °C.

Take `CC(=O)Nc1nc(C)c(-c2ccc(Cl)c(S(=O)(=O)NCCO)c2)s1` [PIK-93]: the ΔTm Average came out at 0 °C, the ΔTm Run 1 worked out at 0 °C and the “ΔTm Run 2” value is listed as -0.1.

For `Cc1ccccc1-n1c(Cn2ncc3c(N)ncnc32)nc2cccc(C)c2c1=O` [PIK-293], the “ΔTm Run 1” value under setting [1] is 0.1 °C. The “ΔTm Run 2” value under setting [2] is -0.2 °C. The “ΔTm Average” value under setting [3] is -0.1 °C.

Turning to `CCCS(=O)(=O)Nc1ccc(F)c(C(=O)c2c[nH]c3ncc(Cl)cc23)c1F` [PLX-4720], the ΔTm at 10 µM runs as follows: under setting [4], -0.3 °C; under setting [5], -0.1 °C; under setting [6], -0.2 °C.

As to `Cc1ccc(-c2nn(C(C)(C)C)c3ncnc(N)c23)cc1` [PP1], the ΔTm Average came out at 0 °C, the ΔTm Run 1 was 0.2 °C and the “ΔTm Run 2” value is given as -0.2.

Turning to `NC(=O)c1cnc(N[C@@H]2CCCC[C@@H]2N)nc1Nc1cccc(-n2nccn2)c1` [PRT062607 (P505-15)], the “ΔTm Average” value came out at 1.3 °C, the “ΔTm Run 1” value is 1.3 °C and the “ΔTm Run 2” value stood at 1.3 °C.

With `C1=N/C2=N/c3ccc(OCCN4CCCC4)c(c3)COC/C=C/COCc3cccc(c3)C(=C1)N2` [Pacritinib (SB1518)], under setting [1], the “ΔTm Run 1” value was 0.2 °C. Under setting [2], the “ΔTm Run 2” value was determined as 0.1 °C. Besides, the “ΔTm Average” value under setting [3] came out at 0.2 °C.

On to `CC(=O)c1c(C)c2cnc(Nc3ccc(N4CCNCC4)cn3)nc2n(C2CCCC2)c1=O.Cl` [Palbociclib (PD-0332991) HCl], for which the “ΔTm Run 1” value under setting [1] amounted to 0.6 °C. Also, under setting [2], the “ΔTm Run 2” value worked out at 0.4 °C. Moreover, the “ΔTm Average” value under setting [3] was determined as 0.5 °C.

In the case of `COc1ccc(COc2cc3oc(=O)c4cc(C(C)O)ccc4c3cc2OC)cc1` (stereo not drawn) [Palomid 529 (P529)], under setting [1], the “ΔTm Run 1” value is 0.3 °C. The “ΔTm Run 2” value under setting [2] was -0.1 °C. Moreover, under setting [3], the “ΔTm Average” value is 0.1 °C.

As to `Cc1ccc(Nc2nccc(N(C)c3ccc4c(C)n(C)nc4c3)n2)cc1S(N)(=O)=O.Cl` [Pazopanib HCl (GW786034 HCl)], the “ΔTm Run 1” value under setting [1] was -0.1 °C. Further, the “ΔTm Run 2” value under setting [2] worked out at 0.0 °C. Also, the “ΔTm Average” value under setting [3] was -0.1 °C.

On to `Cc1ccc(Nc2nccc(N(C)c3ccc4c(C)n(C)nc4c3)n2)cc1S(N)(=O)=O` [Pazopanib], for which the ΔTm at 10 µM was 0.1 °C under setting [4], -0.4 °C under setting [5] and -0.2 °C under setting [6].

`[H]/N=C(/N)N/C(=N/[H])NCCc1ccccc1` [Phenformin HCl]: the thermal shift (ΔTm) at 10 µM runs as follows: under setting [4], 0 °C; under setting [5], -0.4 °C; under setting [6], -0.2 °C.

Regarding `Oc1cc(O)cc(/C=C/c2ccc(O)c(O)c2)c1` [Piceatannol], the shift in melting temperature (ΔTm) at 10 µM was found to be 0 °C under setting [4], 0.1 °C under setting [5] and 0.1 °C under setting [6].

Regarding `O=C(NC[C@H](O)CO)c1ccncc1Nc1ccc(I)cc1F` [Pimasertib (AS-703026)], the “ΔTm Run 1” value under setting [1] was found to be 0.2 °C. Further, the “ΔTm Run 2” value under setting [2] is -0.1 °C. Also, under setting [3], the “ΔTm Average” value stood at 0.0 °C.

Take `Cc1ccc(C(=O)Nc2ccc(CN3CCN(C)CC3)c(C(F)(F)F)c2)cc1C#Cc1cnc2cccnn12` [Ponatinib (AP24534)]: the “ΔTm Run 1” value under setting [1] is 0.0 °C. Moreover, the “ΔTm Run 2” value under setting [2] is -0.1 °C. For the same compound, the “ΔTm Average” value under setting [3] was -0.1 °C.

As for `O=c1c(O)c(-c2ccc(O)c(O)c2)oc2cc(O)cc(O)c12` [Quercetin], the ΔTm at 10 µM worked out at 0.5 °C under setting [4], 0.6 °C under setting [5] and 0.5 °C under setting [6].

Turning to `CC(C)(C)c1cc(NC(=O)Nc2ccc(-c3cn4c(n3)sc3cc(OCCN5CCOCC5)ccc34)cc2)no1` [Quizartinib (AC220)], the ΔTm at 10 µM is, setting by setting: under setting [4], 0.3 °C; under setting [5], 0.2 °C; under setting [6], 0.3 °C.

As to `COc1cc(Nc2ncc(F)c(Nc3ccc4c(n3)NC(=O)C(C)(C)O4)n2)cc(OC)c1OC` [R406 (free base)], the “ΔTm Run 1” value under setting [1] is 0.0 °C. Besides, under setting [2], the “ΔTm Run 2” value was 0.0 °C. The “ΔTm Average” value under setting [3] is 0.0 °C.

As to `COc1ccc(F)c(F)c1C(=O)c1cnc(NC2CCN(S(C)(=O)=O)CC2)nc1N` [R547], the “ΔTm Average” value is listed as -0.2, the ΔTm Run 1 turned out to be 0 °C and the “ΔTm Run 2” value is recorded as -0.4.
